According to article PMC6225275 (Molecules : A Journal of Synthetic Chemistry and Natural …, 2018):
Where “and” joins values, the source holds several entries; their conditions need not be identical. Equal values may be shown once.

Experiments:
Type in all cases: biochemical
[1] = biological target: T1, paraoxon (POX)-inhibited human recombinant AChE (HssAChE) (Homo sapiens, UniProt P22303); conditions: for POX-HssAChE Reactivation (% ± SD): pH 7.4
T1 construct: purchased Sigma-Aldrich

[2] = biological target: T2, diisopropylfluorophosphate (DFP)-inhibited human recombinant AChE (HssAChE) (Homo sapiens, UniProt P22303); conditions: pH 7.4
T2 construct: purchased Sigma-Aldrich

[3] = biological target: T3, methylparaoxon (MePOX)-inhibited human recombinant AChE (HssAChE) (Homo sapiens, UniProt P22303); conditions: for MePOX-HssAChE Reactivation (% ± SD): pH 7.4
T3 construct: purchased Sigma-Aldrich
T3 sequence (P22303 32-614): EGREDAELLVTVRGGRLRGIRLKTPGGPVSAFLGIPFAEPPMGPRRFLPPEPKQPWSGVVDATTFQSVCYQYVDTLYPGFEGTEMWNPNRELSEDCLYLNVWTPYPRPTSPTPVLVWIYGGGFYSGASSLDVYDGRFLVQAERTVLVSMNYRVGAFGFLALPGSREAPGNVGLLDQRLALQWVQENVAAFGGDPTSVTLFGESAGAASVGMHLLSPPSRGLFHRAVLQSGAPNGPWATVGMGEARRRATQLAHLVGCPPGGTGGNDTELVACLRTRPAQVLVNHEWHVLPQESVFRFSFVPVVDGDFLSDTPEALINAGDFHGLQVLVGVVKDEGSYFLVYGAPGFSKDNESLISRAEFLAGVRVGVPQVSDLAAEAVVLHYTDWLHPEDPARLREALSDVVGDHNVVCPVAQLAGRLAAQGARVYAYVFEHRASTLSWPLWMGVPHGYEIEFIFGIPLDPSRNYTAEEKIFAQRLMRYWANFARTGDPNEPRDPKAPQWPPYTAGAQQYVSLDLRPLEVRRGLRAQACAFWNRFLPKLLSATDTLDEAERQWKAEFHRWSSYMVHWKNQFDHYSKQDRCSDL

T1 sequence (P22303 32-614): as above
T2 sequence (P22303 32-614): as above

| SMILES | POX reactivation, maximum over both concentrations [1] | POX-HssAChE Reactivation (% ± SD) [1] | DFP-HssAChE Reactivation (% ± SD) [2] | MePOX reactivation, maximum over both concentrations [3] | MePOX-HssAChE Reactivation (% ± SD) [3] |
| --- | --- | --- | --- | --- | --- |
| C[n+]1ccccc1/C=N/O [Compound 1, pralidoxime, reference compound] | up to 11% | 10.7 ± 0.3% and 2.1 ± 0.1% | 1.3 ± 0.6% and 0.1 ± 0.4% | up to 30% | 30.2 ± 0.3% and 22.4 ± 0.7% |
| ON=Cc1cc[n+](CCC[n+]2ccc(/C=N/O)cc2)cc1 [Compound 4, trimedoxime, reference compound] |  |  | 10.0 ± 0.5% and 2.7 ± 0.3% |  | 51.4 ± 0.9% and 59.5 ± 0.7% |
| ON=Cc1cc[n+](C[n+]2ccc(C=NO)cc2)cc1 [Compound 5, methoxime, reference compound] |  |  | 2.4 ± 0.1% and 0.6 ± 0.3% |  | 14.2 ± 0.1% and 14.3 ± 0.2% |
| NC(=O)c1cc[n+](CCCC[n+]2ccc(/C=N/O)cc2)cc1 [Compound 6, reference compound] |  |  | 3.8 ± 0.1% and 1.4 ± 0.1% |  | 54.4 ± 0.9% and 29.1 ± 0.4% |
| ON=Cc1cc[n+](CCCC[n+]2ccc(/C=N/O)cc2)cc1 [Compound 7, reference compound] |  |  | 1.4 ± 0.5% and 1.4 ± 0.2% |  | 17.9 ± 0.1% and 21.2 ± 0.4% |
| ON=Cc1cc[n+](C/C=C/C[n+]2ccc(/C=N/O)cc2)cc1 [Compound 8, reference compound] |  |  | 1.1 ± 0.3% and 1.5 ±0.2% |  | 19.2 ± 0.9% and 22.8 ± 0.2% |
| NC(=O)c1cc[n+](C/C=C/C[n+]2ccc(/C=N/O)cc2)cc1 [Compound 9, (E)-1-(4-Carbamoylpyridinium)-4-(4-hydroxyiminomethylpyridinium)-but-2-ene Dibromide, reference compound] |  |  | 4.4 ± 0.1% and 2.1 ± 0.4% |  | 55.9 ± 0.5% and 41.1 ± 0.1% |
| ON=Cc1cc[n+](CCCC[n+]2ccccc2)cc1.[Br-].[Br-] [Compound 10, 4-Hydroxyiminomethyl-1,1′-(but-1,4-diyl)-bispyridinium dibromide] |  |  | 2.4 ± 0.5% and 0.4 ± 0.3% |  | 14.3 ± 0.8% and 13.2 ± 0.1% |
| ON=Cc1cc[n+](CCCC[n+]2ccccn2)cc1 [Compound 11, 4-Hydroxyiminomethyl-1,1′-(but-1,4-diyl)-1-pyridinium-1′-pyridazinium dibromide] |  | 6.3 ± 0.8% and 3.0 ± 0.3% | 1.2 ± 0.7% and 1.0 ± 0.4% |  | 7.1 ± 0.7% and 11.8 ± 0.4% |
| ON=Cc1cc[n+](CCCC[n+]2cccc3ccccc32)cc1 [Compound 12, 4-Hydroxyiminomethyl-1,1′-(but-1,4-diyl)-1-pyridinium-1′-quinolinium dibromide] |  | 0.6 ± 0.5% and 2.0 ± 0.1% | 0.2 ± 1.0% and 0.8 ± 0.2% |  | 2.2 ± 0.5% and 8.6 ± 0.4% |
| ON=Cc1cc[n+](CCCC[n+]2ccc3ccccc3c2)cc1 [Compound 13, 4-Hydroxyiminomethyl-1,1′-(but-1,4-diyl)-1-pyridinium-1′-isoquinolinium dibromide] |  | 9.1 ± 0.3% and 8.7 ± 0.3% | 0.7 ± 0.2% and 1.1 ± 0.2% |  | 8.2 ± 0.8% and 16.9 ± 0.4% |
| Cc1cc[n+](CCCC[n+]2ccc(C=NO)cc2)cc1.[Br-].[Br-] [Compound 14, 4-Hydroxyiminomethyl-4′-methyl-1,1′-(but-1,4-diyl)-bispyridinium dibromide] |  |  | 1.1 ± 0.4% and 0.8 ± 0.3% |  | 9.5 ± 0.5% and 9.4 ± 0.2% |
| CC(C)(C)c1cc[n+](CCCC[n+]2ccc(C=NO)cc2)cc1.[Br-].[Br-] [Compound 15, 4-Hydroxyiminomethyl-4′-(1,1-dimethylethyl)-1,1′-(but-1,4-diyl)-bispyridinium dibromide] |  |  | 1.7 ± 0.5% and 0.8 ± 0.3% |  | 4.0 ± 0.5% and 7.6 ± 0.5% |
| ON=Cc1cc[n+](CCCC[n+]2ccc(-c3ccccc3)cc2)cc1.[Br-].[Br-] [Compound 16, 4-Hydroxyiminomethyl-4′-phenyl-1,1′-(but-1,4-diyl)-bispyridinium dibromide] |  | 6.9 ± 0.4% and 8.9 ± 0.5% | 0.7 ± 0.2% and 1.0 ± 0.3% |  | 1.7 ± 0.3% and 6.2 ± 0.4% |
| ON=Cc1cc[n+](CCCC[n+]2ccc(Cc3ccccc3)cc2)cc1.[Br-].[Br-] [Compound 17, 4-Hydroxyiminomethyl-4′-phenylmethyl-1,1′-(but-1,4-diyl)-bispyridinium dibromide] |  | 1.2 ± 0.1% and 4.7 ± 0.3% | 0.0 ± 0.5% and 0.8 ± 0.2% |  | 0.0 ± 0.1% and 3.8 ± 0.4% |
| OCc1cc[n+](CCCC[n+]2ccc(C=NO)cc2)cc1.[Br-].[Br-] [Compound 18, 4-Hydroxyiminomethyl-4′-hydroxymethyl-1,1′-(but-1,4-diyl)-bispyridinium dibromide] |  |  | 3.8 ± 1.0% and 1.4 ± 0.4% |  | 6.7 ± 0.3% and 8.1 ± 0.3% |
| CC(=O)c1cc[n+](CCCC[n+]2ccc(C=NO)cc2)cc1.[Br-].[Br-] [Compound 19, 4-Hydroxyiminomethyl-4′-methylcarbonyl-1,1′-(but-1,4-diyl)-bispyridinium dibromide] |  | 11.9 ± 1.0% and 3.9 ± 0.3% | 1.5 ± 0.3% and 1.0 ± 0.2% |  | 5.2 ± 0.4% and 7.5 ± 0.1% |
| O=C(O)c1cc[n+](CCCC[n+]2ccc(C=NO)cc2)cc1.[Br-].[Br-] [Compound 20, 4-Carboxy-4′-hydroxyiminomethyl-1,1′-(but-1,4-diyl)-bispyridinium dibromide] |  |  | 1.1 ± 0.5% and 0.4 ± 0.1% |  | 9.5 ± 0.3% and 8.8 ± 0.4% |
| CCOC(=O)c1cc[n+](CCCC[n+]2ccc(C=NO)cc2)cc1 [Compound 21, 4-Ethylcarboxy-4′-hydroxyiminomethyl-1,1′-(but-1,4-diyl)-bispyridinium dibromide] |  | 7.1 ± 0.7% and 4.0 ± 0.6% | 0.8 ± 0.3% and 1.1 ± 0.2% |  | 3.8 ± 0.4% and 7.2 ± 0.2% |
| N#Cc1cc[n+](CCCC[n+]2ccc(C=NO)cc2)cc1 [Compound 22, 4-Carbonitril-4′-hydroxyiminomethyl-1,1′-(but-1,4-diyl)-bispyridinium dibromide] |  |  | 1.7 ± 0.5% and 0.4 ± 0.2% |  | 11.1 ± 0.1% and 13.8 ± 0.3% |
| NC(=NO)c1cc[n+](CCCC[n+]2ccc(C=NO)cc2)cc1.[Br-].[Br-] [Compound 23, 4-(1-Amino-1-hydroxyiminomethyl)-4′-hydroxyiminomethyl-1,1′-(but-1,4-diyl)-bispyridinium dibromide] |  |  | 3.1 ± 0.8% and 2.0 ± 0.2% |  | 21% and 20.2 ± 1.0% and 20.7 ± 0.4% |
| NC(=O)c1cc[n+](CCCC[n+]2ccc(C=NO)cc2)cc1C(N)=O.[Br-].[Br-] [Compound 24, 3,4-Dicarbamoyl-4′-hydroxyiminomethyl-1,1′-(but-1,4-diyl)-bispyridinium dibromide] |  | 2.0 ± 0.4% and 2.2 ± 0.8% | 0.7 ± 0.4% and 0.7 ± 1.0% |  | 4.2 ± 0.5% and 10.1 ± 0.2% |
